# Assay results taken from ChEMBL document CHEMBL1201862, “PubChem BioAssay data set” (2004).
#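 Following 48 hours of exposure in 96-well plates, responses at five concentrations were used to interpolate endpoints linearly. The concentration for 50% growth inhibition is given as GI50.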 Calls of active or inactive are those of the source. Rule as the data show it: active = GI50 up to about 1.1 µM and inactive = higher.
# Experiments:
# Experiment in all cases: NCI tumour cell line growth inhibition, 48 h
# MOLT-4 = tested on: MOLT-4
# NCI-H226 = tested on: NCI-H226
# OVCAR-5 = tested on: OVCAR-5
# M14 = tested on: M14
# NCI-H522 = tested on: NCI-H522
# NCI-H23 = tested on: NCI-H23
# CAKI-1 = tested on: CAKI-1
# SW-620 = tested on: SW-620
# SK-MEL-2 = tested on: SK-MEL-2
# A498 = tested on: A498
# OVCAR-8 = tested on: OVCAR-8
# HL-60 = tested on: HL-60
# U-251 = tested on: U-251
# COLO 205 = tested on: COLO 205
# SNB-78 = tested on: SNB-78
# NCI/ADR-RES = tested on: NCI/ADR-RES
# Hs-578T = tested on: Hs-578T
# BT-549 = tested on: BT-549
# DU-145 = tested on: DU-145
# MCF7 = tested on: MCF7
Compound,GI50 (MOLT-4),GI50 (NCI-H226),GI50 (OVCAR-5),GI50 (M14),GI50 (NCI-H522),GI50 (NCI-H23),GI50 (CAKI-1),GI50 (SW-620),GI50 (SK-MEL-2),GI50 (A498),GI50 (OVCAR-8),GI50 (HL-60),GI50 (U-251),GI50 (COLO 205),GI50 (SNB-78),GI50 (NCI/ADR-RES),GI50 (Hs-578T),GI50 (BT-549),GI50 (DU-145),GI50 (MCF7)
Cc1ccc(NC(=O)SCCC(=O)O)cc1NC(=O)SCCC(=O)O,> 100 µM (inactive),> 100 µM (inactive),> 100 µM (inactive),> 100 µM (inactive),> 100 µM (inactive),> 100 µM (inactive),> 100 µM (inactive),> 100 µM (inactive),> 100 µM (inactive),> 100 µM (inactive),> 100 µM (inactive),> 100 µM (inactive),> 100 µM (inactive),> 10 µM (inactive),> 100 µM (inactive),–,–,–,–,–
CCCCCCCC/C=C1\CCC(CN2CCOCC2)C1=O (stereo unspecified),2.13 µM (inactive),17.4 µM (inactive),20.4 µM (inactive),5.37 µM (inactive),2.69 µM (inactive),10.2 µM (inactive),8.87 µM (inactive),2.7 µM (inactive),14.8 µM (inactive),15.8 µM (inactive),3.83 µM (inactive),3.11 µM (inactive),14.8 µM (inactive),5.77 µM (inactive),10.5 µM (inactive),3.79 µM (inactive),4.36 µM (inactive),10.8 µM (inactive),5.3 µM (inactive),1.94 µM (inactive)
CC[C@](C)(O)C(=O)O[C@H]1C(=O)O[C@@H]2C[C@H]3C(C)=CC(=O)[C@@H](O)[C@]3(C)[C@H]3[C@@]4(O)OC[C@]32[C@@H]1[C@@H](C)[C@H]4O [GLAUCARUBINONE],0.05 µM (active),0.113 µM (active),0.658 µM (active),0.107 µM (active),–,0.0796 µM (active),–,0.075 µM (active),0.0625 µM (active),0.32 µM (active),0.0753 µM (active),0.05 µM (active),0.05 µM (active),0.815 µM (active),0.0668 µM (active),2.27 µM (inactive),0.167 µM (active),0.229 µM (active),0.824 µM (active),–
CN(C)CC1CCCC/C1=N/OC(=O)c1ccc(Cl)cc1 (stereo unspecified),> 100 µM (inactive),> 100 µM (inactive),> 100 µM (inactive),> 100 µM (inactive),> 100 µM (inactive),> 100 µM (inactive),> 100 µM (inactive),> 100 µM (inactive),> 100 µM (inactive),> 100 µM (inactive),> 100 µM (inactive),> 100 µM (inactive),> 100 µM (inactive),> 100 µM (inactive),> 100 µM (inactive),–,–,–,–,–
CC(C)c1cccc(C(C)C)c1NC(=O)C(=O)C1SC(=S)NC1=O (stereo unspecified),> 100 µM (inactive),> 100 µM (inactive),> 100 µM (inactive),> 100 µM (inactive),> 100 µM (inactive),> 100 µM (inactive),> 100 µM (inactive),> 100 µM (inactive),> 100 µM (inactive),> 100 µM (inactive),> 100 µM (inactive),> 100 µM (inactive),> 100 µM (inactive),> 100 µM (inactive),> 100 µM (inactive),–,–,–,–,–
COC(=O)NN1C(C)=C(C(=O)OC)C2(C#N)C(C(=O)OC)=C(C)N(NC(=O)OC)C12N (stereo unspecified),> 100 µM (inactive),> 100 µM (inactive),> 100 µM (inactive),> 100 µM (inactive),> 100 µM (inactive),> 100 µM (inactive),> 100 µM (inactive),> 100 µM (inactive),> 100 µM (inactive),> 100 µM (inactive),> 100 µM (inactive),> 100 µM (inactive),> 100 µM (inactive),> 100 µM (inactive),> 100 µM (inactive),–,–,–,–,–
Oc1cc(-c2cccc(Br)c2)nc2cc3c(cc12)OCO3,72.3 µM (inactive),6.75 µM (inactive),51.5 µM (inactive),2.65 µM (inactive),3.93 µM (inactive),5.38 µM (inactive),–,3.61 µM (inactive),2.16 µM (inactive),3.08 µM (inactive),4.57 µM (inactive),3.57 µM (inactive),3.56 µM (inactive),32 µM (inactive),3.37 µM (inactive),4.56 µM (inactive),3.32 µM (inactive),3.6 µM (inactive),5.43 µM (inactive),18.7 µM (inactive)
